# Experimental data taken from DBAASP.
# Columns and labels:
# Test in all cases: ≥ marks a high value that may be exact or a test limit, other limits are often not marked, values filed in µg/mL are converted to µM
# [1] = system: Staphylococcus epidermidis ATCC 12228
# [2] = system: Escherichia coli ATCC 25922
# [3] = system: Salmonella enterica subsp. enterica serovar Typhimurium ATCC 14028
# [4] = system: Escherichia coli CVCC 1515
# [5] = system: Staphylococcus aureus ATCC 29213
# [6] = system: Escherichia coli UB1005
# [7] = system: Pseudomonas aeruginosa ATCC 27853
# [8] = system: Escherichia coli K88
# [9] = system: Pectobacterium carotovorum
# [10] = system: Fusarium oxysporum
# [11] = system: Fusarium solani
# [12] = system: Ramulariopsis gossypii
# [13] = system: Bacillus subtilis ATCC 23857
# [14] = system: Cryptococcus neoformans ATCC 28957
# [15] = system: Pseudomonas syringae pv. tabaci
# [16] = system: Trichoderma asperellum
# [17] = system: Fusarium oxysporum f.sp. vasinfectum
# [18] = system: Candida albicans ATCC 90028
# [19] = system: Staphylococcus aureus ATCC 25923
# [20] = system: Listeria monocytogenes ATCC 19115
# [21] = system: Staphylococcus aureus CMCC 26003
# [22] = system: Bacillus subtilis CMCC 63501
# [23] = system: Pseudomonas aeruginosa CICC 21630
# [24] = system: Escherichia coli K99
# [25] = system: Salmonella enterica subsp. enterica serovar Pullorum C79-13
# [26] = system: Klebsiella pneumoniae
# [27] = system: Pseudomonas aeruginosa PAO1
# [28] = system: Escherichia coli
# [29] = system: Pseudomonas aeruginosa CICC 21625
# [30] = system: Acinetobacter baumannii
# [31] = system: Salmonella enterica subsp. enterica serovar Typhimurium C77-31
# [32] = system: Pseudomonas aeruginosa
# [33] = system: Xanthomonas vesicatoria 2133-2
# [34] = system: Aspergillus niger CECT 2694
# [35] = system: Penicillium expansum EPS 26
# [36] = system: Erwinia amylovora PMV 6076
# [37] = system: Rhizopus stolonifer CECT 2344
# [38] = system: Pseudomonas syringae EPS 94
# [39] = system: Fusarium oxysporum f. sp. lycopersici ATCC 201829
smiles,measurement,setting,value
CC(C)C[C@H](NC(=O)[C@H](Cc1c[nH]c2ccccc12)NC(=O)[C@H](C)NC(=O)[C@H](CCCCN)NC(=O)[C@H](C)NC(=O)[C@H](C)N)C(=O)N[C@@H](CCCCN)C(=O)N[C@@H](CC(C)C)C(=O)N[C@@H](Cc1c[nH]c2ccccc12)C(=O)N[C@@H](C)C(=O)N[C@@H](CCCCN)C(=O)N[C@@H](C)C(=O)N[C@@H](C)C(N)=O [AAKAWLKLWAKAA],MIC,[1],64 µM
same,MIC,[2],2 µM
same,MIC,[3],32 µM
same,MIC,[4],16 µM
same,MIC,[5],64 µM
same,MIC,[6],16 µM
same,MIC,[7],64 µM
same,MIC,[8],8 µM
CC[C@H](C)[C@H](NC(=O)[C@H](CCCCN)NC(=O)[C@@H](NC(=O)[C@@H](NC(=O)[C@H](CC(N)=O)NC(=O)[C@H](Cc1ccc(O)cc1)NC(=O)[C@H](Cc1ccccc1)NC(=O)[C@@H](N)Cc1ccccc1)C(C)C)[C@@H](C)CC)C(=O)N[C@@H](Cc1ccc(O)cc1)C(=O)NCC(=O)N[C@@H](CC(N)=O)C(=O)N[C@@H](CCSC)C(=O)N[C@@H](C)C(=O)NCC(=O)N[C@@H](CCCN=C(N)N)C(=O)N[C@H](C(=O)N[C@@H](CO)C(=O)N[C@@H](CCCCN)C(N)=O)[C@@H](C)CC [FFYNVIKIYGNMAGRISK],MIC,[9],16 µM
same,MIC,[2],128 µM
same,MIC,[10],≥ 128 µM
same,MIC,[11],≥ 128 µM
same,MIC,[12],≥ 64 µM
same,MIC,[13],≥ 64 µM
same,MIC,[14],≥ 32 µM
same,MIC,[15],≥ 128 µM
same,MIC,[16],≥ 256 µM
same,MIC,[17],≥ 128 µM
same,MIC,[18],≥ 128 µM
same,MIC,[19],128 µM
CC[C@H](C)[C@H](NC(=O)[C@H](CCCN=C(N)N)NC(=O)[C@H](CCCN=C(N)N)NC(=O)[C@H](CC(C)C)NC(=O)[C@@H](N)Cc1ccccc1)C(=O)N[C@@H](CCCN=C(N)N)C(=O)N[C@H](C(=O)N[C@H](C(=O)N1CCC[C@H]1C(=O)N[C@@H](Cc1c[nH]c2ccccc12)C(=O)N[C@H](C(=O)N[C@@H](CC(N)=O)C(=O)N1CCC[C@H]1C(=O)N1CCC[C@H]1C(=O)N[C@@H](Cc1ccccc1)C(=O)N[C@@H](CC(C)C)C(=O)N[C@@H](CCC(N)=O)C(=O)N[C@@H](CCC(N)=O)C(=O)N[C@H](C(N)=O)[C@@H](C)O)C(C)C)[C@@H](C)O)C(C)C [FLRRIRVTPWVNPPFLQQT],MIC,[20],≥ 54 µM
same,MIC,[21],≥ 108 µM
CC[C@H](C)[C@H](NC(=O)[C@H](CCCN=C(N)N)NC(=O)[C@H](CCCN=C(N)N)NC(=O)[C@H](Cc1c[nH]c2ccccc12)NC(=O)[C@@H](N)Cc1ccccc1)C(=O)N[C@@H](CCCN=C(N)N)C(=O)N[C@H](C(=O)N[C@H](C(=O)N1CCC[C@H]1C(=O)N[C@@H](Cc1c[nH]c2ccccc12)C(=O)N[C@H](C(=O)N[C@@H](CC(N)=O)C(=O)N1CCC[C@H]1C(=O)N1CCC[C@H]1C(=O)N[C@@H](Cc1ccccc1)C(=O)N[C@@H](CC(C)C)C(=O)N[C@@H](CCC(N)=O)C(=O)N[C@@H](CCC(N)=O)C(=O)N[C@H](C(N)=O)[C@@H](C)O)C(C)C)[C@@H](C)O)C(C)C [FWRRIRVTPWVNPPFLQQT],MIC,[22],≥ 105 µM
same,MIC,[20],26.2 µM
same,MIC,[21],26.2 µM
CC(C)C[C@H](NC(=O)[C@@H]1CCCN1C(=O)[C@H](CCCN=C(N)N)NC(=O)[C@H](CC(C)C)NC(=O)[C@H](CC(C)C)NC(=O)[C@@H]1CCCN1C(=O)[C@H](CCCN=C(N)N)NC(=O)[C@H](CC(C)C)NC(=O)[C@H](CC(C)C)NC(=O)[C@@H]1CCCN1C(=O)[C@H](CCCN=C(N)N)NC(=O)[C@H](CC(C)C)NC(=O)[C@H](CC(C)C)NC(=O)[C@@H]1CCCN1C(=O)[C@H](CCCN=C(N)N)NC(=O)[C@H](CC(C)C)NC(=O)[C@H](CC(C)C)NC(=O)[C@@H]1CCCN1C(=O)[C@H](CCCN=C(N)N)NC(=O)[C@H](CC(C)C)NC(=O)[C@H](CC(C)C)NC(=O)[C@@H]1CCCN1C(=O)[C@H](CCCN=C(N)N)NC(=O)[C@@H](N)CC(C)C)C(N)=O [LRPLLRPLLRPLLRPLLRPLLRPL],MIC,[23],8 µM
same,MIC,[2],2 µM
same,MIC,[3],4 µM
same,MIC,[24],2 µM
same,MIC,[25],2 µM
same,MIC,[26],8 µM
same,MIC,[27],4 µM
same,MIC,[28],2 µM
same,MIC,[29],≥ 32 µM
same,MIC,[30],2 µM
same,MIC,[31],2 µM
same,MIC,[6],2 µM
same,MIC,[7],8 µM
same,MIC,[8],2 µM
same,MIC,[32],32 µM
CC(C)C[C@H](NC(=O)[C@@H]1CCCN1C(=O)[C@H](CCCN=C(N)N)NC(=O)[C@H](CC(C)C)NC(=O)[C@H](CC(C)C)NC(=O)[C@@H]1CCCN1C(=O)[C@H](CCCN=C(N)N)NC(=O)[C@H](CC(C)C)NC(=O)[C@H](CC(C)C)NC(=O)[C@@H]1CCCN1C(=O)[C@H](CCCN=C(N)N)NC(=O)[C@H](CC(C)C)NC(=O)[C@H](CC(C)C)NC(=O)[C@@H]1CCCN1C(=O)[C@H](CCCN=C(N)N)NC(=O)[C@H](CC(C)C)NC(=O)[C@H](CC(C)C)NC(=O)[C@@H]1CCCN1C(=O)[C@H](CCCN=C(N)N)NC(=O)[C@@H](N)CC(C)C)C(N)=O [LRPLLRPLLRPLLRPLLRPL],MIC,[23],16 µM
same,MIC,[2],4 µM
same,MIC,[3],4 µM
same,MIC,[24],4 µM
same,MIC,[25],2 µM
same,MIC,[26],8 µM
same,MIC,[27],32 µM
same,MIC,[28],4 µM
same,MIC,[29],≥ 32 µM
same,MIC,[30],2 µM
same,MIC,[31],4 µM
same,MIC,[6],4 µM
same,MIC,[7],32 µM
same,MIC,[8],2 µM
same,MIC,[32],32 µM
CC[C@H](C)[C@H](NC(=O)[C@H](CCCCN)NC(=O)[C@H](CCCCN)NC(=O)[C@H](Cc1ccccc1)NC(=O)[C@H](CC(C)C)NC(=O)[C@H](CCCCN)NC(=O)[C@@H](N)Cc1c[nH]c2ccccc12)C(=O)N[C@@H](CC(C)C)C(=O)N[C@@H](CCCCN)C(=O)N[C@@H](Cc1ccccc1)C(=O)N[C@@H](CC(C)C)C(N)=O [WKLFKKILKFL],MIC,[33],2 µM
same,MIC,[34],22.4 µM
same,MIC,[35],22.4 µM
same,MIC,[36],5.92 µM
same,MIC,[37],≥ 35.4 µM
same,MIC,[38],5.92 µM
same,MIC,[39],1.73 µM
